Measured values taken from the supplement of paper PMC11579375.

Legend:
Assay in all cases: area under the viability dose-response curve (AUC) (AUC (arbitrary units, max 500 = no viability loss)); higher = less sensitive (higher viability)
Conditions in all cases: exposure time: 120 h; concentration range: 0.1 nM - 10 µM, 6 doses
[1] = tested on: 13E (embryonal-type hepatoblastoma organoid)
Experimental: (§1)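 Patient-derived hepatoblastoma tumor organoids (about 50 organoids per well, 384-well plates, medium with 5% BME) were treated with the PMC pediatric cancer drug library. Each drug was tested in duplicate at 6 concentrations (0.1 nM to 10 µM, 10-fold steps).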

[2] = tested on: 3E (embryonal-type hepatoblastoma organoid)
Experimental: as §1

[3] = tested on: 96F1 (fetal-I hepatoblastoma organoid with intermediate liver markers)
Experimental: as §1

[4] = tested on: 13F2 (fetal-II hepatoblastoma organoid with high liver markers)
Experimental: as §1

[5] = tested on: 27F1 (fetal-I hepatoblastoma organoid with intermediate liver markers)
Experimental: as §1

[6] = tested on: 22E (embryonal-type hepatoblastoma organoid)
Experimental: as §1

[7] = tested on: 135F2 (fetal-II hepatoblastoma organoid with high liver markers)
Experimental: as §1

[8] = tested on: 8F1 (fetal-I hepatoblastoma organoid with intermediate liver markers)
Experimental: as §1

[9] = tested on: 17F1 (fetal-I hepatoblastoma organoid with intermediate liver markers)
Experimental: as §1

[10] = tested on: 10F2 (fetal-II hepatoblastoma organoid with high liver markers)
Experimental: as §1

[11] = tested on: 17E (embryonal-type hepatoblastoma organoid)
Experimental: as §1

Row | SMILES | area under the viability dose-response curve [1] | area under the viability dose-response curve [2] | area under the viability dose-response curve [3] | area under the viability dose-response curve [4] | area under the viability dose-response curve [5] | area under the viability dose-response curve [6] | area under the viability dose-response curve [7] | area under the viability dose-response curve [8] | area under the viability dose-response curve [9] | area under the viability dose-response curve [10] | area under the viability dose-response curve [11]
1 | C=CC(=O)N1C[C@H](Nc2ncnc3[nH]ccc23)CC[C@@H]1C | > 500 | 463 | 482 | 460 | > 500 | > 500 | 471 | 495 | 488 | 426 | > 500
2 | CCn1c(-c2nonc2N)nc2cnc(Oc3cccc(NC(=O)c4ccc(OCCN5CCOCC5)cc4)c3)cc21 | 478 | 493 | 469 | 392 | 481 | 468 | 441 | 467 | 451 | 348 | 450
3 | CCn1cc(-c2ccnc3[nH]c(-c4cccc(CN(C)C)c4)cc23)c(-c2ccc(NC(=O)N(C)C)cc2)n1 | 382 | 322 | 413 | 298 | 387 | 408 | 370 | 458 | 477 | 307 | 297
4 | CNc1nc(-c2nc3ccc(N4CCN(C)CC4)cc3n2Cc2ccccc2)cn2c(C)nnc12 | 411 | 321 | 492 | 260 | 479 | 415 | 309 | > 500 | 460 | 328 | 433
5 | COc1ccc(Cn2ccc3ccc(C(=O)NO)cc32)cc1 | 490 | 452 | 487 | 472 | 483 | 452 | 488 | 474 | 484 | 454 | 475
6 | C[C@@H](Oc1cc(-n2cnc3ccc(CN4CCN(C)CC4)cc32)sc1C(N)=O)c1ccccc1C(F)(F)F | 262 | 246 | 361 | 268 | 262 | 256 | 254 | 358 | 276 | 250 | 277
7 | C[C@@H]1CN(CC(=O)Nc2ccc3c(c2)Cc2cccc(-c4cc(=O)cc(N5CCOCC5)o4)c2S3)C[C@H](C)O1 | 493 | > 500 | 480 | 484 | 456 | 461 | 470 | > 500 | > 500 | 430 | 457
8 | C[C@H](NC(=O)Cc1cc(F)cc(F)c1)C(=O)N[C@@H]1C(=O)N(C)c2ccccc2-c2ccccc21 | 472 | 406 | 497 | 388 | 441 | 493 | 472 | 456 | 478 | 392 | 430
9 | Cc1c(-c2c(-c3ccc(F)o3)sc3ncnc(O[C@H](Cc4ccccc4OCc4ccnn4CC(F)(F)F)C(=O)O)c23)ccc(OCCN2CCN(C)CC2)c1Cl | 367 | 234 | > 500 | 239 | 428 | 388 | 351 | 485 | > 500 | 185 | 370
10 | Cc1c(Cn2c(C)nc3c(C(=O)O)cc(N4CCOCC4)cc32)cccc1C(F)(F)F | 488 | 499 | 497 | 488 | 498 | 495 | > 500 | > 500 | 498 | 500 | 495
11 | Cc1ncc(Cl)cc1NCc1ccc(C(=O)N[C@@H](CC2CCCC2)C(=O)NC2CC2)s1 | > 500 | 456 | > 500 | 468 | 488 | > 500 | 476 | > 500 | > 500 | 491 | > 500
12 | O=C(NOC[C@H](O)CO)c1ccc(F)c(F)c1Nc1ccc(I)cc1F | 490 | 488 | 461 | 325 | 447 | 481 | 376 | > 500 | 480 | 262 | 471
13 | O=c1cc(-c2cccc3c2Sc2ccccc2S3)oc(N2CCOCC2)c1 | 498 | 490 | > 500 | 500 | > 500 | 497 | > 500 | > 500 | > 500 | 455 | 498
14 | S=c1nc[nH]c2nc[nH]c12 [6-Mercaptopurine] | 449 | > 500 | 420 | 443 | 469 | 460 | 402 | 465 | 451 | 478 | 429
